Results reported in EPA's ToxValDB 9.5 (doi:10.2903/j.efsa.2007.110r).
≈ marks a conversion by molar mass, not a printed value.

How the values were obtained:
Colinus virginianus = conditions: acute; oral; diet; mortality
Pimephales promelas = conditions: chronic/long-term; duration: 28 days; growth
Canidae = conditions: subchronic; duration: 90 days; oral; Dog Other; organ weight
Oncorhynchus mykiss = conditions: acute; duration: 96 hours; mortality
Daphnia magna = conditions: chronic/long-term; duration: 21 days; reproduction
Apis mellifera = conditions: acute; duration: 48 hours; oral; unspecified; mortality

SMILES: N#Cc1c[nH]cc1-c1cccc2c1OC(F)(F)O2 [Fludioxonil]
- LD50 (Rattus norvegicus; acute, oral, mortality): > 5000 mg/kg
- NOAEL (Rattus norvegicus; chronic, duration: 2 years, oral, diet, organ weight): 37 mg/kg-day
- NOAEL (Rattus norvegicus; reproduction developmental, reproduction): 212 mg/kg-day
- LC50 (Tagia sp.; acute, mortality): > 1000 mg/kg
- NOEC (Tagia sp.; chronic/long-term): 20 mg/kg
- LD50 (Bird; acute, oral, unspecified, mortality): ≥ 2000 mg/kg
- NOEC (Bird; reproductive): 11.1 mg/kg-day
- LC50 (Colinus virginianus): > 833 mg/kg-day
- NOEC (Pimephales promelas): 0.039 mg/L
- NOAEL (Canidae): 58.5 mg/kg-day
- LC50 (Oncorhynchus mykiss): 0.23 mg/L (≈ 0.927 µM)
- NOEC (Daphnia magna): 0.005 mg/L
- LD50 (Apis mellifera): > 100 µg/piece
